Experimental findings from paper PMC3691235, “Discovery of a Novel Dual Fungal CYP51/Human 5-Lipoxygenase Inhibitor: Implications for Anti-Fungal Therapy” (PLoS ONE, 2013) are described below.

Structures are written as SMILES. Like-named read-outs stand apart in the source and are kept apart here.

The target in assay [1] is T1, Human leukocyte 5-lipoxygenase (Homo sapiens, UniProt P09917).
T1 construct: made in house
T1 sequence (P09917 1-674): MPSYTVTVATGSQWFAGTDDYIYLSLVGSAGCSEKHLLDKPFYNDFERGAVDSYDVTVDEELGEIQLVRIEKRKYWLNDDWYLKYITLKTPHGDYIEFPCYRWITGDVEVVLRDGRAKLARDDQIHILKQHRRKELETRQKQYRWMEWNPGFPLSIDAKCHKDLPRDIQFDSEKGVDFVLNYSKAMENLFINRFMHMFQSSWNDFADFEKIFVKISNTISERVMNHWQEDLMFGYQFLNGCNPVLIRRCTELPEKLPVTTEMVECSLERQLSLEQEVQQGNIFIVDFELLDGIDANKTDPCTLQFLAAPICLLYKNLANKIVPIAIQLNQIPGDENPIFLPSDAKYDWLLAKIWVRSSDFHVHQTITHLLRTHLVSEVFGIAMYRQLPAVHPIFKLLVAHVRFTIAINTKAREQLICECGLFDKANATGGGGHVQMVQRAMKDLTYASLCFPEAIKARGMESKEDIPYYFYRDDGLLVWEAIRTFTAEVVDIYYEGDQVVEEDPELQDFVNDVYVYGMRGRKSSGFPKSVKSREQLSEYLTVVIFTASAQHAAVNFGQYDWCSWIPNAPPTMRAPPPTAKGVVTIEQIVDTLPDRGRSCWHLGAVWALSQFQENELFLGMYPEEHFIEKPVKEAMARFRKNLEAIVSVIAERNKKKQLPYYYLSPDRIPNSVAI
The assay can be described thus: Lipoxygenase UV-based inhibitor assay, 5-LOX. Type of assay: biochemical. The procedure: (§1) Human leukocyte 5-lipoxygenase was expressed as a non-tagged protein and used as a crude ammonium sulfate protein fraction, as published previously.
(§2) Inhibitor potencies were evaluated through use of the standard UV-based inhibitor assay. The initial rates were determined by following the formation of the conjugated diene product at 234 nm (ε = 25,000 M^−1 cm^−1) with a Perkin-Elmer Lambda 40 UV/Vis spectrophotometer at one substrate concentration and varying inhibitor concentrations. All reactions were 2 mL in volume and constantly stirred using a magnetic stir bar at room temperature (23°C), with the enzyme specific buffer conditions outlined in Table 1. The substrate used for the various isozymes was arachidonic acid (AA) for 5-LOX, 12-LOX, and 15-LOX-2 and linoleic acid (LA) for 15-LOX-1, where concentrations were quantitatively determined by allowing the enzymatic reaction to go to completion. IC50 values were obtained by determining the initial rate at various inhibitor concentrations and plotting them against inhibitor concentration, followed by a hyperbolic saturation curve fit. The data used for the saturation curves were performed in duplicate or triplicate, depending on the quality of the data. […] Inhibitors were stored at −20°C in DMSO. […] The solvent isotope effect of the inhibitor IC50 was investigated utilizing the same conditions and methods as stated above. The pH of the buffered D2O was determined as reported previously.

Assay [2] concerns LTB4 synthesis in whole human blood. The assay can be described thus: Human blood LTB4 inhibition assay. Type of assay: cell-based. Conditions: for inhibition at 10 µM: Homo sapiens, compounds at 10 µM, calcium ionophore stimulated, ELISA, error in parentheses. The procedure: Whole human blood was obtained from healthy volunteers from within the Student Health Center. These studies were approved by the UCSC Institutional Review Board (IRB) and informed consent was obtained from all donors before blood draw. The whole blood was dispensed in 150 µL samples followed by addition of inhibitor or control (vehicle, DMSO), and incubated for 15 min at 37°C. The mixture was then stimulated by introduction of the calcium ionophore, […], (freshly diluted from a 50 mM DMSO stock to 1.5 mM in Hanks balanced salt solution), and incubated for 30 min at 37°C. Samples were then centrifuged at 1,500 rpm (300 g) for 10 min at 4°C and the supernatant diluted between 20 and 50-fold (batch dependent) for LTB4 detection, using an ELISA detection kit (Cayman Chemicals Inc.).
Background: An ELISA detects its analyte on a solid surface through an enzyme-linked reagent.

The target of assay [3] is T2, human platelet 12-lipoxygenase (12-LOX) (Homo sapiens, UniProt P18054).
T2 construct: His6 (N); made in house
T2 sequence (P18054 1-663): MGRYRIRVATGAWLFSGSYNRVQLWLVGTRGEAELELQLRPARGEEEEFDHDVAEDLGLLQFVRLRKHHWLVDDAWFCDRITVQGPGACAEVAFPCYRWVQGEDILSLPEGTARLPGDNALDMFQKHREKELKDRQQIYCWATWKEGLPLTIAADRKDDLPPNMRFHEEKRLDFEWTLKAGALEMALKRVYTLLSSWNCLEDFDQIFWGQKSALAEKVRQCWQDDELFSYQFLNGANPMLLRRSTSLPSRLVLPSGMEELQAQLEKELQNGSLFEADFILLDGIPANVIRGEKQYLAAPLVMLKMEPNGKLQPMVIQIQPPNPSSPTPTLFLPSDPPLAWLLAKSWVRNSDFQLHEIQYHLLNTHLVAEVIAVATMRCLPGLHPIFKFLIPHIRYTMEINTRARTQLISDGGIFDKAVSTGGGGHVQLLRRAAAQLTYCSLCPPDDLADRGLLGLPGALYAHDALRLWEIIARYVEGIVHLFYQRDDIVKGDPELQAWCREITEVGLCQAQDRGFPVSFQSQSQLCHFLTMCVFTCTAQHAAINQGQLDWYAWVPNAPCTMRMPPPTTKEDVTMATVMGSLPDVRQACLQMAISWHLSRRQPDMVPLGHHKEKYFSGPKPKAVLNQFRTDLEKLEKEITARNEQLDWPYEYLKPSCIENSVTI
In words: Lipoxygenase UV-based inhibitor assay, 12-LOX. Type of assay: biochemical. Conditions: 10 µM AA, pH 8.0. The method, then: as §1, §2

The target of another assay is T3, 5-LOX (Homo sapiens, UniProt P09917).
T3 construct: made in house
T3 sequence (P09917 1-674): T1 sequence (P09917 1-674)
In words: Pseudoperoxidase activity assay. Type of assay: biochemical. Conditions: 10 µM inhibitor, 10 µM 13-HPODE, positive = loss of greater than 40% of product absorption at 234 nm. The procedure: The reductive properties of the inhibitors were determined by monitoring the pseudoperoxidase activity of lipoxygenase in the presence of the inhibitor and 13-(S)-hydroperoxyoctadecadienoic acid (13-HPODE). Activity is monitored by direct measurement of the product degradation following the decrease of absorbance at 234 nm using a Perkin-Elmer Lambda 40 UV/Vis spectrometer (50 mM Sodium Phosphate (pH 7.4), 0.3 mM CaCl2, 0.1 mM EDTA, 0.01% Triton X100, 10 µM 13-HPODE). All reactions were performed in 2 mL of buffer and constantly stirred with a rotating stir bar (23°C). Reaction was initiated by addition of 10 µM inhibitor (a 1 to 1 ratio to 13-HPODE), and a positive result for activity reflected a loss of greater than 40% of product absorption at 234 nm.

[4] abbreviates: UV-based assay, 10 µM AA, pH 7.3, crude enzyme, error = SD, read-out: 5-LOX IC50.
Where [5] appears, read: UV-based assay, read-out: 5-LOX IC50.

On to `Cc1cc(C2CCCCC2)n(O)c(=O)c1` [ciclopirox, reference compound], for which the IC50 was 11000 ± 1000 nM in assay [1] (setting [4]) and greater than 100000 nM in assay [3]. Moreover, in assay [2], the inhibition at 10 µM amounted to 34%.

`CC[C@](O)(c1nnc(NCc2ccc3c(-c4ccc(F)cc4)cc(=O)oc3c2)o1)C(F)(F)F` [setileuton, reference compound]: the “Reductive activity (pseudoperoxidase activity)” value (from here on “Reductive activity”) is recorded as “non-reductive” at 5-LOX and “No” on 5-LOX (listed as Setileuton). For the same compound, the IC50 in assay [1] (setting [5]) was 60 ± 6 nM; in assay [3] it was greater than 150000 nM. Further, the inhibition at 10 µM in assay [2] came to 100%.

Regarding `CC(=O)N1CCN(c2ccc(NCc3ccc(-c4cccc(Cl)c4)o3)cc2)CC1` [Compound 13], the “increase in 5-LOX IC50 in D2O relative to H2O (solvent isotope effect)” value in assay [1] (D2O buffer vs H2O) came to 2.4 fold. For the same compound, the IC50 is 520 nM in assay [1] (setting [4]) and greater than 50000 nM in assay [3]. Moreover, the inhibition at 10 µM in assay [2] was roughly 50%.

For `N#Cc1ccc(-c2ccc(CNc3ccc(N4CCCCC4)cc3)o2)cc1` [Compound 14], the IC50 was 330 nM in assay [1] (setting [4]) and greater than 150000 nM in assay [3].

Consider `CC(=O)N1CCN(c2ccc(OCC3COC(Cn4ccnc4)(c4ccc(Cl)cc4Cl)O3)cc2)CC1` (centres unmarked) [ketoconazole, reference compound], for which the “Reductive activity” value on 5-LOX is listed as “No”. Further, the IC50 in assay [1] is greater than 50000 nM; in assay [3] it was greater than 150000 nM. For the same compound, in assay [2], the inhibition at 10 µM was found to be 25%.

With `CC(C)(C)OC(=O)N1CCN(c2ccc(NCc3ccc(-c4ccc(C#N)cc4)o3)cc2)CC1` [Compound 1], the “Reductive activity” value at 5-LOX was “Yes”. In addition, the figures for the IC50 in assay [1] (setting [4]) and in assay [3] were 170 nM and greater than 150000 nM, respectively. Moreover, the inhibition at 10 µM in assay [2] is roughly 50%.

Regarding `CC(=O)N1CCN(c2ccc(NCC3COC(Cn4ccnc4)(c4ccc(Cl)cc4Cl)O3)cc2)CC1` (centres unmarked) [ketaminazole (16), ketaminazole], the “Reductive activity” value at 5-LOX is “reductive inhibitor and Yes”. In assay [1], the “selectivity for 5-LOX over 12-LOX, 15-LOX-1, 15-LOX-2, COX-1 and COX-2” value is on record as “over 100 times”. The IC50 is 700 nM in assay [1] (setting [4]), 700 nM in assay [1] (setting [5]) and greater than 150000 nM in assay [3]. In assay [2], the inhibition at 10 µM was found to be 45%. For the same compound, the “greater potency than ketoconazole in whole blood” value in assay [2] (whole human blood) was found to be 2 fold.

A word on the IC50: it is the concentration that inhibits the measured activity by half. Broadly, the inhibition is the drop in the measured response relative to a control, in per cent.
